From the supplement of paper PMC10307832

Columns and labels:
Assay in all cases: relative viability (nuclei count vs DMSO), 5 days (fraction); higher = more cells survive
[1] = compound: CC(C)CCN1c2nc(Nc3cc(F)c(O)c(F)c3)ncc2N(C)C(=O)C1C [BI-D1870] + Cc1cc(Nc2cc(N3CCN(C)CC3)nc(Sc3ccc(NC(=O)C4CC4)cc3)n2)n[nH]1 [Tozasertib] (partner 0.1 µM)
In short: (§1)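 Medians of duplicate plates are given as relative viability. That measure is the nuclei count in treated wells divided by the count in vehicle wells. Counts were taken on 4× images of lung cancer cell lines in 1536-well plates, 5 days after pin-tool dosing the day after seeding with one drug alone or a fixed anchor-drug dose plus five library-drug doses (not always all listed) in √10 steps.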

[2] = compound: CC(C)CCN1c2nc(Nc3cc(F)c(O)c(F)c3)ncc2N(C)C(=O)C1C [BI-D1870] + N=C(N)NC(=N)NCCc1ccccc1 [Phenformin] (partner 250 µM)
In short: as §1

[3] = compound: O=c1ncccn1[C@@H]1O[C@H](CO)[C@@H](O)[C@H]1O [Zebularine] + CC(C)C[C@H](NC(=O)[C@H](Cc1ccccc1)NC(=O)c1cnccn1)B(O)O [Bortezomib] (partner 0.002 µM)
In short: as §1

[4] = compound: O=c1ncccn1[C@@H]1O[C@H](CO)[C@@H](O)[C@H]1O [Zebularine] + CS(=O)(=O)CCNCc1ccc(-c2ccc3ncnc(Nc4ccc(OCc5cccc(F)c5)c(Cl)c4)c3c2)o1 [Lapatinib] (partner 2 µM)
In short: as §1

Cell Line	relative viability ([1]; first compound 0.04 µM)	relative viability ([1]; first compound 0.1265 µM)	relative viability ([1]; first compound 0.4 µM)	relative viability ([1]; first compound 1.265 µM)	relative viability ([1]; first compound 4 µM)	relative viability ([2]; first compound 0.04 µM)	relative viability ([2]; first compound 0.1265 µM)	relative viability ([2]; first compound 0.4 µM)	relative viability ([2]; first compound 1.265 µM)	relative viability ([2]; first compound 4 µM)	relative viability ([3]; first compound 1 µM)	relative viability ([3]; first compound 3.162 µM)	relative viability ([3]; first compound 10 µM)	relative viability ([3]; first compound 31.62 µM)	relative viability ([3]; first compound 100 µM)	relative viability ([4]; first compound 1 µM)	relative viability ([4]; first compound 3.162 µM)	relative viability ([4]; first compound 10 µM)	relative viability ([4]; first compound 31.62 µM)	relative viability ([4]; first compound 100 µM)
HCC-44	1.29	0.89	0.855	0.602	0.404	0.315	0.211	0.186	0.256	0.232	0.95	0.868	0.483	0.827	0.251	1.07	1.07	0.566	0.951	0.454
HCC-78	0.455	0.355	0.392	0.39	0.293	0.72	0.796	0.795	0.822	0.593	0.497	0.512	0.407	0.42	0.355	1.1	0.43	0.871	0.729	0.181
HCC-366	0.0892	0.057	0.055	0.0986	0.0506	0.705	0.587	0.608	0.608	0.573	1.05	0.976	0.292	0.685	0.116	1.22	0.984	0.329	0.749	0.0986
HCC-827	0.421	0.401	0.377	0.396	0.369	0.436	0.38	0.375	0.436	0.366	1.12	1.06	0.875	0.773	0.506	0.209	0.175	0.192	0.188	0.191
HOP-62	0.371	0.371	0.407	0.39	0.301	0.705	0.657	0.719	0.823	0.664	0.593	0.741	0.547	0.201	0.143	1.07	0.783	0.467	0.368	0.144
LC-2-ad	0.561	0.479	0.443	0.367	0.373	0.586	0.657	0.502	0.636	0.54	1.09	0.76	0.521	0.605	0.148	1.05	0.886	0.722	0.584	0.168
LCLC-97TM1	0.302	0.289	0.221	0.225	0.186	0.458	0.472	0.396	0.417	0.453	1.41	0.627	0.473	0.253	0.217	0.784	0.665	0.451	0.376	0.139
LOU-NH91	0.688	0.536	0.695	0.586	0.405	0.744	0.63	0.703	0.817	0.558	0.485	0.464	0.51	0.441	0.492	0.715	0.731	0.712	0.705	0.606
LU99A	0.274	0.253	0.273	0.316	0.25	1.05	0.804	0.799	0.634	0.72	1.39	1.08	0.638	0.421	0.199	1.14	0.838	0.615	0.421	0.176
LXF-289	0.173	0.211	0.191	0.183	0.195	0.561	0.493	0.491	0.529	0.451	1.04	0.993	0.94	0.748	0.301	0.986	0.92	0.818	0.783	0.271
NCI-H23	0.433	0.26	0.267	0.314	0.214	0.827	0.758	0.768	0.759	0.736	1.15	1.06	–	0.918	0.783	1.15	1.12	–	1.21	0.756
NCI-H322M	0.494	0.508	0.456	0.495	0.41	0.841	0.764	0.668	0.626	0.701	1.19	1.29	1.06	1.17	0.824	0.608	0.589	0.586	0.601	0.576
NCI-H460	0.467	0.0966	0.104	0.0609	0.0499	0.541	0.48	0.503	0.447	0.0984	1.34	1.07	0.241	0.278	0.126	1.05	0.897	0.255	0.294	0.0468
NCI-H520	0.508	0.441	0.44	0.358	0.36	0.514	0.596	0.584	0.537	0.429	0.831	0.449	0.337	0.231	0.224	1.14	0.863	0.477	0.277	0.256
NCI-H596	0.953	0.82	0.901	0.81	0.905	0.809	0.683	0.695	0.74	0.855	1.06	1.1	0.725	1.23	0.986	1.19	1.11	0.759	1.18	1
NCI-H647	0.399	0.251	0.442	0.385	0.138	0.659	0.466	0.62	0.513	0.324	1.27	0.749	0.181	0.175	0.204	1.35	1.03	0.227	0.212	0.14

Cell Line	relative viability ([1]; first compound 0.04 µM)	relative viability ([1]; first compound 0.1265 µM)	relative viability ([1]; first compound 0.4 µM)	relative viability ([1]; first compound 1.265 µM)	relative viability ([1]; first compound 4 µM)	relative viability ([2]; first compound 0.04 µM)	relative viability ([2]; first compound 0.1265 µM)	relative viability ([2]; first compound 0.4 µM)	relative viability ([2]; first compound 1.265 µM)	relative viability ([2]; first compound 4 µM)	relative viability ([3]; first compound 1 µM)	relative viability ([3]; first compound 3.162 µM)	relative viability ([3]; first compound 10 µM)	relative viability ([3]; first compound 31.62 µM)	relative viability ([3]; first compound 100 µM)	relative viability ([4]; first compound 1 µM)	relative viability ([4]; first compound 3.162 µM)	relative viability ([4]; first compound 10 µM)	relative viability ([4]; first compound 31.62 µM)	relative viability ([4]; first compound 100 µM)
NCI-H650	0.752	0.677	0.689	0.588	0.265	0.444	0.446	0.432	0.38	0.322	0.956	0.654	0.557	0.525	0.357	1.32	0.805	0.496	0.565	0.276
NCI-H661	0.355	0.337	0.336	0.354	0.381	0.27	0.28	0.281	0.289	0.269	0.729	0.824	0.709	0.716	0.785	0.443	0.463	0.461	0.436	0.583
NCI-H727	0.683	0.699	0.561	0.773	0.557	0.53	0.614	0.587	0.712	0.462	0.901	0.816	0.737	0.943	0.762	0.724	0.797	0.65	0.948	0.772
NCI-H838	0.283	0.265	0.243	0.251	0.22	0.523	0.503	0.613	0.595	0.518	0.994	0.727	0.598	0.801	0.298	1.19	1.14	0.632	0.834	0.382
NCI-H1355	0.598	0.528	0.498	0.374	0.384	0.494	0.418	0.44	0.46	0.38	1.3	1.2	0.844	0.493	0.335	1.31	0.851	0.854	0.681	0.357
NCI-H1437	0.432	0.382	0.377	0.387	0.363	0.279	0.255	0.309	0.332	0.27	0.595	0.474	–	0.566	0.258	0.925	0.934	–	0.787	0.333
NCI-H1650	0.53	0.347	0.401	0.323	0.252	0.368	0.362	0.358	0.414	0.304	0.226	0.191	–	0.2	0.199	0.878	0.618	–	1.08	0.86
NCI-H1651	0.9	0.487	0.784	0.647	0.344	0.389	0.315	0.287	0.295	0.322	0.979	0.935	0.582	0.947	0.609	0.917	1.07	–	0.94	0.515
NCI-H1666	0.673	0.569	0.584	0.569	0.537	0.572	0.521	0.592	0.58	0.537	0.884	0.805	0.745	0.879	0.612	0.561	0.57	0.49	0.667	0.593
NCI-H1734	0.249	0.263	0.288	0.256	0.22	0.402	0.379	0.412	0.43	0.376	0.988	0.86	0.463	0.379	0.346	1.05	1.01	0.452	0.5	0.493
NCI-H1755	0.59	0.551	0.518	0.513	0.531	0.651	0.62	0.647	0.688	0.573	1.03	0.952	0.739	1.08	0.415	1.17	0.991	0.802	1.11	0.497
NCI-H1915	0.466	0.395	0.389	0.427	0.313	0.376	0.358	0.378	0.305	0.291	1.11	0.913	0.433	1.09	0.97	1.12	0.961	0.717	1.13	0.979
NCI-H1975	0.79	0.509	0.223	0.176	0.145	0.4	0.37	0.422	0.426	0.313	0.403	0.338	0.288	0.267	0.233	0.982	0.872	0.478	0.392	0.267
NCI-H1993	0.606	0.602	0.58	0.566	0.612	0.482	0.403	0.487	0.468	0.572	1.26	1.1	–	1.14	0.778	0.848	0.691	–	0.718	0.735
NCI-H2009	0.826	0.723	0.639	0.516	0.321	0.546	0.457	0.456	0.329	0.222	1.04	0.928	0.876	0.609	0.339	0.941	0.755	0.753	0.757	0.359
NCI-H2023	0.308	0.265	0.253	0.227	0.164	0.487	0.367	0.408	0.416	0.308	1.08	0.932	0.749	0.646	0.273	1.03	0.686	0.786	0.717	0.292
